Data as given in patent US11311462B2, “Adhesive monomers for dental materials” (Mitsui Chemicals, Inc., priority 2017, dated 2022).

Experiment: Three-point bending test of cured product
Assay type: physicochemical
Procedure: The composition prepared as described above was packed in a 2×2×25 mm SUS mold, covered with a cover film, and then irradiated with light from a dental visible light irradiator (α Light V, manufactured by J. Morita Tokyo MFG. Corp.) for 3 minutes on each side, namely, for a total of 6 minutes on both sides to cure the composition. The cured product was stored in deionized water at 37° C. for 24 hours, and then subjected to a three-point bending test with a general-purpose tester (Precise Versatile Material Tester 210X, manufactured by INTESCO Co., Ltd.) under conditions in which the distance between supports was 20 mm and the cross head speed was 1.0 mm/min. The results of the bending test of the cured products of the compositions to be used as the dental materials are shown in Table 2.

[1] = Table 2, composition: compound 1.80 g, UDMA 2.5 g, TEGDMA 0.74 g, plus 0.5 parts by weight TPO, cured product stored in deionized water at 37° C. 24 hours
[2] = Table 3, composition: compound 60, UDMA 30, TEGDMA 10 parts by weight, plus 0.5 parts TPO
[3] = Table 5, filled pasty composition in parts by weight: compound 8.0, UDMA 20, TEGDMA 10, 4-META 2.0, CQ 0.2, 2-butoxyethyl 4-(dimethylamino)benzoate 0.4, glass filler 59

C=C(C)C(=O)OCCOCCNC(=O)OCC(COC(=O)NCCOCCOC(=O)C(=C)C)OP(=O)(O)O [Compound 6]
Cured product bending test result Elastic modulus [1]: 2.0 GPa | Cured product bending test result Maximum stress [1]: 89 MPa | Cured product bending test result Elastic modulus [2]: 1.3 GPa | Cured product bending test result Maximum stress [2]: 66 MPa

C=C(C)C(=O)OCCNC(=O)OCC(COC(=O)NCCOC(=O)C(=C)C)OP(=O)(O)O [Compound 2]
Cured product bending test result Elastic modulus [1]: 2.3 GPa | Cured product bending test result Maximum stress [1]: 102 MPa | Cured product bending test result Elastic modulus [2]: 2.2 GPa | Cured product bending test result Maximum stress [2]: 92 MPa | Cured product bending test result Elastic modulus [3]: 6.5 GPa

C=C(C)C(=O)OCCCCCCCCCCOP(=O)(O)O [MDP, 10-methacryloyloxydecyl dihydrogen phosphate, reference compound]
Cured product bending test result Elastic modulus [1]: 1.7 GPa | Cured product bending test result Maximum stress [1]: 85 MPa | Cured product bending test result Elastic modulus [2]: 0.32 GPa | Cured product bending test result Maximum stress [2]: 22 MPa | Cured product bending test result Elastic modulus [3]: 5.7 GPa

C=C(C)C(=O)OCCNC(=O)OCC(COCC(COC(=O)NCCOC(=O)C(=C)C)OP(=O)(O)O)OC(=O)NCCOC(=O)C(=C)C (stereo not drawn) [Compound 4]
Cured product bending test result Elastic modulus [1]: 2.4 GPa | Cured product bending test result Maximum stress [1]: 102 MPa | Cured product bending test result Elastic modulus [2]: 2.3 GPa | Cured product bending test result Maximum stress [2]: 88 MPa
